The subject of this experiment is adenosine-uptake system. Put plainly: Inhibition of the adenosine uptake in rabbit erythrocytes. The format is cell-based. To be noted: Oryctolagus cuniculus, 0.25 h; rabbit erythrocyte preparation; concentration at which 50% of the adenosine originally employed is still present 15 min after addition of adenosine; 30° C.; read-out: IC50 (inhibition of functional adenosine uptake). The method, then:
2. Inhibition of the Adenosine Uptake in Rabbit Erythrocytes by the Compounds According to the Invention
The capability of substances to influence the adenosine-uptake system is investigated by determining the inhibitory effect of the substances on functional adenosine uptake.
For the functional adenosine-uptake test, an erythrocyte preparation from rabbit blood is used. The blood is drawn intravenously using citrate (3 ml Monovette 9NC from Sarstedt) as anticoagulant. The blood is centrifuged at 3000 g for 5 min and the erythrocytes are suspended in 10 mM 3-(N-morpholino)propanesulphonic acid buffer (MOPS)/0.9% NaCL solution pH7.4. The suspension is diluted to one hundredth of the original blood volume. In each case, 990 μl of the suspension are admixed with 10 μl of a suitable concentration of the substance to be investigated, and the mixture is incubated at 30° C. for 5 min. 5 μl of a 4 mM adenosine solution are then added, and the mixture is incubated at 30° C. for another 15 min. The samples are then centrifuged at 3000 g for 5 min and in each case 700 μl of the supernatant are admixed with 28 μl of 70% strength HClO4, allowed to stand in an ice bath for 30 min and centrifuged at 16,000 g for 3 min, and 350 μl of the sample are neutralized using 30 μl of 5N NaOH. 50 μl of the sample are applied to a column (Waters Symmetry C18 5 μm 3.9×150 mm). A Spherisorb ODS II 5 μm 4.6×10 mm column is used as precolumn. The mobile phase used is a gradient of […] KH2PO4/5 mM tributylamine pH7 (mobile phase A) and a mixture of mobile phase A/methanol 1/1 (mobile phase B). The gradient is from 10 to 40% B, at a flow rate of 0.5 ml/min. The adenosine which is present is quantified by its absorption at 260 nm, as are the hypoxanthine and inosine formed. The IC50 is the concentration of active compound at which, 15 min after addition of adenosine, 50% of the adenosine concentration originally employed is still present.
By IC50 is commonly meant the concentration that gives 50% inhibition. For the compound `NC(=O)[C@@H](NC(=O)[C@@H]1CCCC[C@H]1c1ccc(CN(C(=O)N2CCOCC2)c2ccccc2)cc1)c1ccccc1` [Example 1-1, N-{4-[(1R,2R)-2-({[(1S)-2-Amino-2-oxo-1-phenylethyl]amino}carbonyl)cyclohexyl]benzyl}-N-phenyl-4-morpholinecarboxamide], the IC50 amounted to 30 nM.
Turning to `CN(C)C(=O)N(Cc1ccc([C@@H]2CCCC[C@H]2C(=O)N[C@H](C(N)=O)c2ccccc2)cc1)c1ccccc1` [Example 1-3], the IC50 was found to be 20 nM.
Take `CN(C)C(=O)N(Cc1ccc([C@@H]2CCCC[C@H]2C(=O)N[C@H](C(N)=O)c2ccccc2)cc1)C1CC1` [Example 1-14]: the half-inhibitory concentration (IC50) was 30 nM.
Then `CCN(CC)C(=O)N(Cc1ccc([C@@H]2CCCC[C@H]2C(=O)N[C@H](C(N)=O)c2ccccc2)cc1)c1ccccn1` [Example 1-33], with 40 nM; and `CCN(CCO)C(=O)N(Cc1ccc([C@@H]2CCCC[C@H]2C(=O)N[C@H](C(N)=O)c2ccc(F)cc2)cc1)c1ccc(F)cc1` [Example 2-1, (1R,2R)-N-[(1S)-2-Amino-1-(4-fluorophenyl)-2-oxoethyl]-2-(4-{[{[ethyl(2-hydroxyethyl)amino]carbonyl}(4-fluorophenyl)amino]methyl}phenyl)cyclohexanecarboxamide], with 20 nM; and `CCN(CCO)C(=O)N(Cc1ccc([C@@H]2CCCC[C@H]2C(=O)N[C@H](C(N)=O)c2ccccc2)cc1)c1ccccc1` [Example 2-18, (1R,2R)-N-[(1S)-2-Amino-1-phenyl-2-oxoethyl]-2-(4-{[{[ethyl(2-hydroxyethyl)-amino]carbonyl}(phenyl)amino]methyl}phenyl)cyclohexanecarboxamide], with 20 nM.

The record behind these values is US7074780B2, “Substituted phenylcyclohexanecarboxamides and their use” (Bayer Aktiengesellschaft, priority 2000, dated 2006).
